{
  "source": "patent US9549942B2",
  "about": "“Composition for preventing or treating degenerative brain diseases including compound downregulating expression of BACE1 proteins” (RESEARCH & BUSINESS FOUNDATION SUNGKYUNKWAN UNIVERSITY, priority 2013, dated 2017)",
  "note": "Structures can show the parent of a compound that is named as a salt.",
  "data": [
    {"tested_on": "BACE1 proteins", "experiment": "Amount of expression of BACE1 proteins in brain nerve cells (Western blot)", "format": "cell-based, human", "conditions": "SH-SY5Y cells, treated 24 hours at 0.001, 0.01 and 0.1 μM, actin control", "procedure": "(§1) As brain nerve cells, human neuroblastoma cells SH-SY5Y were used. […] The SH-SY5Y cells were plated at 5×10^5 cells/well into a 6-well plate. […] Then, the amount of expression of BACE1 proteins was determined by Western blot. Actin was used throughout as a control.", "values": [
      {"smiles": "CC(C)=CCC/C(C)=C/CC/C(C)=C/CO", "note": "[farnesol]", "amount of expression of BACE1 proteins": "decreased at 0.01 μM and 0.1 μM"}
    ]},
    {"tested_on": "BACE1 proteins", "experiment": "Amount of expression of BACE1 proteins in brain nerve cells (Western blot)", "format": "cell-based, human", "conditions": "SH-SY5Y cells, treated 24 hours at 0.625, 1.25, 2.5, 5 and 10 μM, actin control", "procedure": "as §1", "values": [
      {"smiles": "COC(=O)Nc1nc2cc(Sc3ccccc3)ccc2[nH]1", "note": "[fenbendazole]", "amount of expression of BACE1 proteins": "decreased at 0.625 μM to 10 μM"},
      {"smiles": "COC(=O)Nc1nc2cc(C(=O)c3ccccc3)ccc2[nH]1", "note": "[mebendazole]", "amount of expression of BACE1 proteins": "decreased at 0.625 μM to 10 μM"}
    ]},
    {"tested_on": "BACE1 promoter", "experiment": "BACE1 promoter activity, BACE1 promoter-luciferase vector, Dual-Luciferase assay", "format": "cell-based", "conditions": "Homo sapiens, SH-SY5Y, 24 h, read-out: decrease of BACE1 promoter activity", "procedure": "(§2) A BACE1 promoter-luciferase vector was transfected to brain nerve cells (SH-SY5Y). […] A change in a BACE1 promoter activity was measured using a Dual-Luciferase assay kit.", "units": {"inhibition at 10 µM": "%"}, "values": [
      {"smiles": "COc1ccc2c(c1)[nH]c1c(C)nccc12", "note": "[harmine hydrochloride]", "inhibition at 10 µM": "≥ 50"},
      {"smiles": "COc1cc2c(c(OC)c1OC)-c1ccc(OC)c(=O)cc1[C@@H](NC(C)=O)CC2", "note": "[colchicine]", "inhibition at 10 µM": "≥ 50"},
      {"smiles": "C=C(NC(=O)C(=C)NC(=O)c1csc(C2=N[C@@H]3c4csc(n4)[C@H]4NC(=O)c5csc(n5)[C@H]([C@](C)(O)[C@@H](C)O)NC(=O)[C@H]5CSC(=N5)/C(=C/C)NC(=O)[C@H]([C@@H](C)O)NC(=O)c5csc(n5)[C@]3(CC2)NC(=O)[C@H](C)NC(=O)C(=C)NC(=O)[C@H](C)NC(=O)[C@H]([C@@H](C)CC)N[C@@H]2C=Cc3c([C@H](C)O)cc(nc3[C@H]2O)C(=O)O[C@@H]4C)n1)C(N)=O", "note": "[thiostrepton]", "inhibition at 10 µM": "≥ 50"}
    ]},
    {"tested_on": "BACE1 promoter", "experiment": "BACE1 promoter activity, BACE1 promoter-luciferase vector, Dual-Luciferase assay", "format": "cell-based", "conditions": "Homo sapiens; SH-SY5Y transfected with BACE1 promoter-luciferase vector, 10 μM for 24 hours; read-out: decrease of BACE1 promoter activity", "procedure": "as §2", "units": {"inhibition at 10 µM": "%"}, "values": [
      {"smiles": "CC[C@H](c1ccc(O)cc1)[C@@H](CC)c1ccc(O)cc1", "note": "[hexestrol]", "inhibition at 10 µM": "≥ 50"},
      {"smiles": "CCCOc1ccccc1-c1nc2nn[nH]c2c(=O)[nH]1", "note": "[zaprinast]", "inhibition at 10 µM": "≥ 50"},
      {"smiles": "CCN(CC)C(=O)/C(C#N)=C/c1cc(O)c(O)c([N+](=O)[O-])c1", "note": "[entacapone]", "inhibition at 10 µM": "≥ 50"},
      {"smiles": "Nc1ccc(S(=O)(=O)Nc2cnc3ccccc3n2)cc1", "note": "[sulfaquinoxaline sodium salt]", "inhibition at 10 µM": "≥ 50"},
      {"smiles": "O=C(c1ccc(OCCN2CCCCC2)cc1)c1c(-c2ccc(O)cc2)sc2cc(O)ccc12", "note": "[raloxifene hydrochloride]", "inhibition at 10 µM": "≥ 50"},
      {"smiles": "COc1cc(C(=O)NCc2ccc(OCCN(C)C)cc2)cc(OC)c1OC", "note": "[trimethobenzamide hydrochloride]", "inhibition at 10 µM": "≥ 50"},
      {"smiles": "CC1(C)O[C@@H]2C[C@H]3[C@@H]4C[C@H](F)C5=CC(=O)C=C[C@]5(C)[C@H]4[C@@H](O)C[C@]3(C)[C@]2(C(=O)CO)O1", "note": "[flunisolide]", "inhibition at 10 µM": "≥ 50"},
      {"smiles": "COC(=O)Nc1nc2cc(Sc3ccccc3)ccc2[nH]1", "note": "[fenbendazole]", "inhibition at 10 µM": "≥ 50"},
      {"smiles": "CCN(CCCCOC(=O)c1ccc(OC)c(OC)c1)C(C)Cc1ccc(OC)cc1", "note": "(stereo not drawn) [mebeverine hydrochloride]", "inhibition at 10 µM": "≥ 50"},
      {"smiles": "COC(=O)Nc1nc2cc(C(=O)c3ccccc3)ccc2[nH]1", "note": "[mebendazole]", "inhibition at 10 µM": "≥ 50"},
      {"smiles": "Clc1cnccn1", "note": "[2-chloropyrazine]", "inhibition at 10 µM": "≥ 50"},
      {"smiles": "CCCN(CCC)S(=O)(=O)c1ccc(C(=O)O)cc1", "note": "[probenecid]", "inhibition at 10 µM": "≥ 50"},
      {"smiles": "O=C1Nc2ccc(Cl)cc2[C@@](C#CC2CC2)(C(F)(F)F)O1", "note": "[efavirenz]", "inhibition at 10 µM": "≥ 50"},
      {"smiles": "Cn1cnc([N+](=O)[O-])c1Sc1ncnc2nc[nH]c12", "note": "[azathioprine]", "inhibition at 10 µM": "≥ 50"},
      {"smiles": "CC[C@@]1([C@@H]2O[C@@H]([C@H]3O[C@@](O)(CO)[C@H](C)C[C@@H]3C)C[C@@H]2C)CC[C@H]([C@]2(C)CC[C@]3(C[C@H](O)[C@@H](C)[C@@H]([C@@H](C)[C@@H](OC)[C@H](C)C(=O)O)O3)O2)O1", "note": "[monensin sodium salt]", "inhibition at 10 µM": "≥ 50"},
      {"smiles": "CC[C@@]1(O)C(=O)OCc2c1cc1n(c2=O)Cc2cc3c(CN(C)C)c(O)ccc3nc2-1", "note": "[topotecan]", "inhibition at 10 µM": "≥ 50"},
      {"smiles": "CC(C)=CCC/C(C)=C/CC/C(C)=C/CO", "note": "[farnesol]", "inhibition at 10 µM": "≥ 50"},
      {"smiles": "NC1CCN(c2nc3c(cc2F)c(=O)c(C(=O)O)cn3-c2ccc(F)cc2F)C1", "note": "(stereo not drawn) [tosufloxacin hydrochloride]", "inhibition at 10 µM": "≥ 50"}
    ]}
  ]
}
